Reference: ChEMBL document CHEMBL4418485, “Klf5 modulators” (2015)
Activity calls are given as the source filed them. The calls are words filed in the database; no cut-off is given here.

Legend:
SW-620 = test: Reduction in KLF5 protein expression in human SW620 cells at 10 uM by gel electrophoresis and autoradiography; type: functional, cell-based
HT-29 = test: Reduction in KLF5 protein expression in human HT-29 cells at 10 uM by gel electrophoresis and autoradiography; type: functional, cell-based
DLD-1 [1] = test: Reduction in KLF5 protein expression in human DLD1 cells at 10 uM by gel electrophoresis and autoradiography; type: functional, cell-based
HCT-116 = test: Reduction in KLF5 protein expression in human HCT116 cells at 10 uM by gel electrophoresis and autoradiography; type: functional, cell-based
DLD-1 [2] = test: Cell cycle arrest in human DLD1 cells assessed as accumulation at subG1 phase accumulation after 48 hrs (reference value: 1.27 +/- 0.15%); type: functional
DLD-1 [3] = test: Cell cycle arrest in human DLD1 cells assessed as accumulation at subG1 phase accumulation after 24 hrs (reference value: 0.81 +/- 0.13%); type: functional
DLD-1 [4] = test: Cell cycle arrest in human DLD1 cells assessed as accumulation at G1 phase accumulation after 24 hrs (reference value: 34.78 +/- 2.58%); type: functional
DLD-1 [5] = test: Cell cycle arrest in human DLD1 cells assessed as accumulation at G2/M phase accumulation after 24 hrs (reference value: 46.58 +/- 3.73%); type: functional
DLD-1 [6] = test: Cell cycle arrest in human DLD1 cells assessed as accumulation at S phase accumulation after 48 hrs (reference value: 8.06 +/- 1.35%); type: functional
DLD-1 [7] = test: Cell cycle arrest in human DLD1 cells assessed as accumulation at G2/M phase accumulation after 48 hrs (reference value: 58.17 +/- 4.4%); type: functional
DLD-1 [8] = test: Cell cycle arrest in human DLD1 cells assessed as accumulation at G1 phase accumulation after 48 hrs (reference value: 32.63 +/- 3.18%); type: functional
IEC-6 = test: Growth inhibition of rat IEC-6 cells relative to control; type: cell-based
DLD-1 [9] = test: Cell cycle arrest in human DLD1 cells assessed as accumulation at S phase accumulation after 24 hrs (reference value: 18.05 +/- 1.13%); type: functional

Row | SMILES | Activity (SW-620) | Activity (HT-29) | Activity (DLD-1 [1]) | Activity (HCT-116) | Activity (DLD-1 [2]) [%] | Activity (DLD-1 [3]) [%] | Activity (DLD-1 [4]) [%] | Activity (DLD-1 [5]) [%] | Activity (DLD-1 [6]) [%] | Activity (DLD-1 [7]) [%] | Activity (DLD-1 [8]) [%] | growth inhibition (GI) (IEC-6) [%] | Activity (DLD-1 [9]) [%]
1 | CN(C(=O)COC(=O)/C=C/c1cccc([N+](=O)[O-])c1)C1CCS(=O)(=O)C1 (stereo not given) | inactive | inactive | inactive | inactive |  |  |  |  |  |  |  |  | 
2 | CN(C(=O)CNC(=O)/C=C/c1cccc(Cl)c1)C1CCS(=O)(=O)CC1 | Active | Active | Active | Active | 9.63 | 7.82 | 44.15 | 29.81 | 19.74 | 39.36 | 31.58 | < 50 | 18.47
3 | CN(C(=O)CNC(=O)/C=C/c1cccc([N+](=O)[O-])c1)C1CCS(=O)(=O)C1 (stereo not given) | inactive | inactive | inactive | inactive |  |  |  |  |  |  |  |  | 
4 | CN(C(=O)CNC(=O)/C=C/c1cccc(Cl)c1)C1CCS(=O)(=O)C1 (stereo not given) | inactive | inactive | inactive | inactive |  |  |  |  |  |  |  |  | 
